Reference: patent publication EP4603105A1, “PHARMACEUTICAL COMPOSITION CONTAINING CYCLIC COMPOUND HAVING SELECTIVE KRAS INHIBITORY EFFECT AGAINST HRAS AND NRAS” (CHUGAI SEIYAKU KABUSHIKI KAISHA, priority 2022, dated 2024)

Legend:
[1] = test system: human lung cancer strain NCI-H441; format: cell-based
Procedure, shortened: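 Signal came from […] measured per well once the reagent was added. Beforehand, cells were cultured at 37°C and 5% carbon dioxide on a compound series serially diluted in dimethyl sulfoxide.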

[2] = target: HRAS wild-type protein (Homo sapiens, UniProt P01112); test: Binding to HRAS by surface plasmon resonance (SPR), KD and KD ratio to KRAS; conditions: ratio of the KD value with respect to HRAS wild-type protein to the KD value with respect to KRAS
Sequence of HRAS wild-type protein (P01112 whole entry): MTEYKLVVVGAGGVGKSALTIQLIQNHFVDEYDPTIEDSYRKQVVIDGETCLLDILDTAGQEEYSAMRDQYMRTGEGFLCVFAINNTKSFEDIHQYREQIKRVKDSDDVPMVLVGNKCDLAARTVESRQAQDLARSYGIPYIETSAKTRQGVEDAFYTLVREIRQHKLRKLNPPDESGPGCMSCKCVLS
Procedure, shortened: (§1)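 Measured at 30°C: SPR with GDP-loaded, E. coli-expressed biotin-Avi RAS captured (~100–300 RU), ascending 75 s compound injections, HBS pH 7.4 with GDP, MgCl2, 4% DMSO. KD from 1:1 fit.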

[3] = target: GDP-bound NRAS wild-type protein (Homo sapiens, UniProt P01111); test: Binding to NRAS by surface plasmon resonance (SPR), KD and KD ratio to KRAS; conditions: ratio of the KD value with respect to GDP-bound NRAS wild-type protein to the KD value with respect to KRAS
Sequence of GDP-bound NRAS wild-type protein (P01111 whole entry): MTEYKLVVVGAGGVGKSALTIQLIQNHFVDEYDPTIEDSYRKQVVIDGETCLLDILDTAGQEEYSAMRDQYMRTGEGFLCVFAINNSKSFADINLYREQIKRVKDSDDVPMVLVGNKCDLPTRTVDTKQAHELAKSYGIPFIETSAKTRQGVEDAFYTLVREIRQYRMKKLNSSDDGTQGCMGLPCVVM
Procedure, shortened: as §1

Structure (SMILES)	IC50 [1]	HRAS /KRAS [2]	NRAS /KRAS [3]
CCO[C@@H]1C[C@H]2C(=O)NC3(CCC3)C(=O)N(C)[C@@H](C3CCCC3)C(=O)N(C)[C@H](C(=O)N(C)C)CC(=O)N(C)[C@@H](CC(C)(C)C)C(=O)N[C@@H]([C@@H](C)CC)C(=O)N(C)CC(=O)N(C)[C@H]3CCCCN(C3=O)[C@@H](Cc3ccc(C(F)(F)F)cc3)C(=O)N(C)CC(=O)N[C@@H](CCc3cc(F)c(C(F)(F)F)c(F)c3)C(=O)N2C1 [PP0699]	2.9 nM	C (A compound having a KD ratio of 0.1 or more and less than 3 is denoted as C)	C (A compound having a KD ratio of 0.1 or more and less than 3 is denoted as C)
CCO[C@@H]1C[C@H]2C(=O)NC3(CCC3)C(=O)N(C)[C@@H](C3CCCC3)C(=O)N(C)[C@H](C(=O)N(C)C)CC(=O)N(C)[C@@H](CC3CCCCC3)C(=O)N[C@@H]([C@@H](C)CC)C(=O)N(C)CC(=O)N(C)[C@H]3CCCCN(C3=O)[C@@H](Cc3ccc(C(F)(F)F)cc3)C(=O)N(C)CC(=O)N[C@@H](CCc3cc(F)c(C(F)(F)F)c(F)c3)C(=O)N2C1 [PP0701]	3.8 nM	B (a compound having 3 or more and less than 10 is denoted as B)	C (A compound having a KD ratio of 0.1 or more and less than 3 is denoted as C)
CCO[C@@H]1C[C@H]2C(=O)NC3(CCC3)C(=O)N(C)[C@@H](C3CCCC3)C(=O)N(C)[C@H](C(=O)N(C)C)CC(=O)N(C)[C@@H](Cc3cccnc3)C(=O)N[C@@H]([C@@H](C)CC)C(=O)N(C)CC(=O)N(C)[C@H]3CCCCN(C3=O)[C@@H](Cc3ccc(C(F)(F)F)cc3)C(=O)N(C)CC(=O)N[C@@H](CCc3cc(F)c(C(F)(F)F)c(F)c3)C(=O)N2C1 [PP0703]	26.7 nM	B (a compound having 3 or more and less than 10 is denoted as B)	C (A compound having a KD ratio of 0.1 or more and less than 3 is denoted as C)
CCO[C@@H]1C[C@H]2C(=O)NC3(CCC3)C(=O)N(C)[C@@H](C3CCCC3)C(=O)N(C)[C@H](C(=O)N(C)C)CC(=O)N(C)[C@@H](COC)C(=O)N[C@@H]([C@@H](C)CC)C(=O)N(C)CC(=O)N(C)[C@H]3CCCCN(C3=O)[C@@H](Cc3ccc(C(F)(F)F)cc3)C(=O)N(C)CC(=O)N[C@@H](CCc3cc(F)c(C(F)(F)F)c(F)c3)C(=O)N2C1 [PP0704]	11.4 nM	C (A compound having a KD ratio of 0.1 or more and less than 3 is denoted as C)	C (A compound having a KD ratio of 0.1 or more and less than 3 is denoted as C)
CCO[C@@H]1C[C@H]2C(=O)NC3(CCC3)C(=O)N(C)[C@@H](C3CCCC3)C(=O)N(C)[C@H](C(=O)N(C)C)CC(=O)N(C)[C@@H](CCOC)C(=O)N[C@@H]([C@@H](C)CC)C(=O)N(C)CC(=O)N(C)[C@H]3CCCCN(C3=O)[C@@H](Cc3ccc(C(F)(F)F)cc3)C(=O)N(C)CC(=O)N[C@@H](CCc3cc(F)c(C(F)(F)F)c(F)c3)C(=O)N2C1 [PP0705]	17.5 nM	C (A compound having a KD ratio of 0.1 or more and less than 3 is denoted as C)	C (A compound having a KD ratio of 0.1 or more and less than 3 is denoted as C)
CCO[C@@H]1C[C@H]2C(=O)NC3(CCC3)C(=O)N(C)[C@@H](C3CCCC3)C(=O)N(C)[C@H](C(=O)N(C)C)CC(=O)N(C)C[C@@H](C)C(=O)N[C@@H]([C@@H](C)CC)C(=O)N(C)CC(=O)N(C)[C@H]3CCCCN(C3=O)[C@@H](Cc3ccc(C(F)(F)F)cc3)C(=O)N(C)CC(=O)N[C@@H](CCc3cc(F)c(C(F)(F)F)c(F)c3)C(=O)N2C1 [PP0706]	5390 nM	B (a compound having 3 or more and less than 10 is denoted as B)	B (a compound having 3 or more and less than 10 is denoted as B)
CCO[C@@H]1C[C@H]2C(=O)NC3(CCC3)C(=O)N(C)[C@@H](C3CCCC3)C(=O)N(C)[C@H](C(=O)N3CCOCC3)CC(=O)N(C)[C@@H](CC)C(=O)N[C@@H]([C@@H](C)CC)C(=O)N(C)CC(=O)N(C)[C@H]3CCCCN(C3=O)[C@@H](Cc3ccc(C(F)(F)F)cc3)C(=O)N(C)CC(=O)N[C@@H](CCc3cc(F)c(C(F)(F)F)c(F)c3)C(=O)N2C1 [PP0708]	5.5 nM	B (a compound having 3 or more and less than 10 is denoted as B)	B (a compound having 3 or more and less than 10 is denoted as B)
CCC[C@H]1C(=O)N[C@@H]([C@@H](C)CC)C(=O)N(C)CC(=O)N(C)[C@H]2CCCCN(C2=O)[C@@H](Cc2ccc(C(F)(F)F)cc2)C(=O)N(C)CC(=O)N[C@@H](CCc2cc(F)c(C(F)(F)F)c(F)c2)C(=O)N2C[C@H](OCC)C[C@H]2C(=O)NC2(CCC2)C(=O)N(C)[C@@H](C2CCCC2)C(=O)N(C)[C@H](C(=O)N2CCOCC2)CC(=O)N1C [PP0709]	1 nM	B (a compound having 3 or more and less than 10 is denoted as B)	C (A compound having a KD ratio of 0.1 or more and less than 3 is denoted as C)
C=CC[C@H]1C(=O)N[C@@H]([C@@H](C)CC)C(=O)N(C)CC(=O)N(C)[C@H]2CCCCN(C2=O)[C@@H](Cc2ccc(C(F)(F)F)cc2)C(=O)N(C)CC(=O)N[C@@H](CCc2cc(F)c(C(F)(F)F)c(F)c2)C(=O)N2C[C@H](OCC)C[C@H]2C(=O)NC2(CCC2)C(=O)N(C)[C@@H](C2CCCC2)C(=O)N(C)[C@H](C(=O)N2CCOCC2)CC(=O)N1C [PP0710]	4.9 nM	B (a compound having 3 or more and less than 10 is denoted as B)	C (A compound having a KD ratio of 0.1 or more and less than 3 is denoted as C)
C#CC[C@H]1C(=O)N[C@@H]([C@@H](C)CC)C(=O)N(C)CC(=O)N(C)[C@H]2CCCCN(C2=O)[C@@H](Cc2ccc(C(F)(F)F)cc2)C(=O)N(C)CC(=O)N[C@@H](CCc2cc(F)c(C(F)(F)F)c(F)c2)C(=O)N2C[C@H](OCC)C[C@H]2C(=O)NC2(CCC2)C(=O)N(C)[C@@H](C2CCCC2)C(=O)N(C)[C@H](C(=O)N2CCOCC2)CC(=O)N1C [PP0711]	6.5 nM	B (a compound having 3 or more and less than 10 is denoted as B)	C (A compound having a KD ratio of 0.1 or more and less than 3 is denoted as C)
CCO[C@@H]1C[C@H]2C(=O)NC3(CCC3)C(=O)N(C)[C@@H](C3CCCC3)C(=O)N(C)[C@H](C(=O)N3CCOCC3)CC(=O)N(C)[C@@H](CC3CC3)C(=O)N[C@@H]([C@@H](C)CC)C(=O)N(C)CC(=O)N(C)[C@H]3CCCCN(C3=O)[C@@H](Cc3ccc(C(F)(F)F)cc3)C(=O)N(C)CC(=O)N[C@@H](CCc3cc(F)c(C(F)(F)F)c(F)c3)C(=O)N2C1 [PP0712]	7.1 nM	C (A compound having a KD ratio of 0.1 or more and less than 3 is denoted as C)	C (A compound having a KD ratio of 0.1 or more and less than 3 is denoted as C)
CCO[C@@H]1C[C@H]2C(=O)NC3(CCC3)C(=O)N(C)[C@@H](C3CCCC3)C(=O)N(C)[C@H](C(=O)N3CCOCC3)CC(=O)N(C)[C@@H](CC3CCC3)C(=O)N[C@@H]([C@@H](C)CC)C(=O)N(C)CC(=O)N(C)[C@H]3CCCCN(C3=O)[C@@H](Cc3ccc(C(F)(F)F)cc3)C(=O)N(C)CC(=O)N[C@@H](CCc3cc(F)c(C(F)(F)F)c(F)c3)C(=O)N2C1 [PP0713]	4.2 nM	B (a compound having 3 or more and less than 10 is denoted as B)	C (A compound having a KD ratio of 0.1 or more and less than 3 is denoted as C)
CCO[C@@H]1C[C@H]2C(=O)NC3(CCC3)C(=O)N(C)[C@@H](C3CCCC3)C(=O)N(C)[C@H](C(=O)N3CCOCC3)CC(=O)N(C)[C@@H](CC(C)(C)C)C(=O)N[C@@H]([C@@H](C)CC)C(=O)N(C)CC(=O)N(C)[C@H]3CCCCN(C3=O)[C@@H](Cc3ccc(C(F)(F)F)cc3)C(=O)N(C)CC(=O)N[C@@H](CCc3cc(F)c(C(F)(F)F)c(F)c3)C(=O)N2C1 [PP0714]	5.1 nM	B (a compound having 3 or more and less than 10 is denoted as B)	C (A compound having a KD ratio of 0.1 or more and less than 3 is denoted as C)
CCO[C@@H]1C[C@H]2C(=O)NC3(CCC3)C(=O)N(C)[C@@H](C3CCCC3)C(=O)N(C)[C@H](C(=O)N3CCOCC3)CC(=O)N(C)[C@@H](CC3CCCC3)C(=O)N[C@@H]([C@@H](C)CC)C(=O)N(C)CC(=O)N(C)[C@H]3CCCCN(C3=O)[C@@H](Cc3ccc(C(F)(F)F)cc3)C(=O)N(C)CC(=O)N[C@@H](CCc3cc(F)c(C(F)(F)F)c(F)c3)C(=O)N2C1 [PP0715]	4.5 nM	B (a compound having 3 or more and less than 10 is denoted as B)	C (A compound having a KD ratio of 0.1 or more and less than 3 is denoted as C)
CCO[C@@H]1C[C@H]2C(=O)NC3(CCC3)C(=O)N(C)[C@@H](C3CCCC3)C(=O)N(C)[C@H](C(=O)N3CCOCC3)CC(=O)N(C)[C@@H](CC3CCCCC3)C(=O)N[C@@H]([C@@H](C)CC)C(=O)N(C)CC(=O)N(C)[C@H]3CCCCN(C3=O)[C@@H](Cc3ccc(C(F)(F)F)cc3)C(=O)N(C)CC(=O)N[C@@H](CCc3cc(F)c(C(F)(F)F)c(F)c3)C(=O)N2C1 [PP0716]	6.3 nM	B (a compound having 3 or more and less than 10 is denoted as B)	C (A compound having a KD ratio of 0.1 or more and less than 3 is denoted as C)
